Experiment [1] deals with T1, human vasopressin V1b receptor (Homo sapiens, UniProt P47901).
T1 construct: expressed in transfected cells; host or cells: CHO-K1 (cell line hV1b-3H2_CHO), membrane preparation
T1 sequence (P47901 1-424): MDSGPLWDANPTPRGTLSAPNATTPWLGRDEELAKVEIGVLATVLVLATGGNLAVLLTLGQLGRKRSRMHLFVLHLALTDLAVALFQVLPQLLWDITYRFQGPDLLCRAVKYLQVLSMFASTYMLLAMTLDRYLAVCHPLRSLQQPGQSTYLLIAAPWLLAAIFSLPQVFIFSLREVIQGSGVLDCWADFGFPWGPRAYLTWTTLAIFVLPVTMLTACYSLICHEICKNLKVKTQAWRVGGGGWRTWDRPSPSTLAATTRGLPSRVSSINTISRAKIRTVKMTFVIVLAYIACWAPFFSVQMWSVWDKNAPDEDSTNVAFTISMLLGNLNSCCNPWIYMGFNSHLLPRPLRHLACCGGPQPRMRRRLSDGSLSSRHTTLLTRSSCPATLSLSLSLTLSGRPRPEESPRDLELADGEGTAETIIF
In words: Vasopressin V1b receptor binding assay. The settings on record: membranes from CHO-K1 cells with stably expressed human V1b receptors, displacement of 1.5 nM 3H-AVP. In outline: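 Membranes were incubated with radioligand for 60 min at room temperature in 50 mM Tris, 10 mM MgCl2, 0.1% BSA, pH 7.4, with 2% DMSO final. Nonspecific binding was defined with 1 uM AVP. Bound ligand was collected by GF/B filtration and counted by scintillation, and binding parameters were derived by nonlinear regression.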

The target of the next experiment is T2, human V1b receptor (Homo sapiens, UniProt P47901).
T2 construct: expressed in transfected cells; host or cells: CHO-K1
T2 sequence (P47901 1-424): T1 sequence (P47901 1-424)
Kind of experiment: Effect on vasopressin-induced calcium increase in cells having a cloned human vasopressin receptor. Format: cell-based. To be noted: CHO-K1 cells stably transfected with human V1b receptor, Arg-vasopressin 10^-8 M, FLIPR calcium.

Counter-ions that a name gives are not always drawn.

Experimental for human V1b receptor: Effect on Vasopressin-induced Calcium Increase in Cells Having a Cloned Human Vasopressin Receptor The functional activity of the test substances was investigated on CHO-K1 cells which were stably transfected with the human V1b receptor. 50 000 cells were seeded in each well of a microtiter plate with 96 wells and incubated in culture medium in a saturated water vapor atmosphere with 5% CO2 at 37° C. overnight. The culture medium consisted of DMEM/Nut Mix F12 with Glutamax I (from Invitrogen), 10% fetal calf serum, 100 units/ml penicillin, 100 μg/ml streptomycin and 800 μg/ml Geneticin. The following day, the cells were washed with culture medium and loaded with a fluorescent dye for calcium in accordance with the manufacturer's statements (Ca^++-Plus-Assay Kit, Molecular Devices). The cells were loaded in the presence of probenzide (1 vol %). The test substances were diluted with culture medium (final concentration 10^−10 to 10^−5M) and incubated with the dye-loaded cells at room temperature for 15 minutes. The Arg-vasopressin (10^−8M) was then added and the maximum fluorescence signal was determined using a FLIPR-96 measuring instrument (Molecular Devices). Concentration-effect plots were constructed using nonlinear regression algorithms (GraphPad Prism 3.0). Kb values were calculated from IC50 values by the method of Cheng and Prusoff (Kb=IC50/1+L/EC50).

Take `COc1ccc(S(=O)(=O)N2C(=O)C(c3ccc(CN4CCCC4)cc3OC)(N3CCC[C@H]3C(=O)N(C)C)c3cc(Cl)ccc32)cc1` (single isomer, unassigned) [Example 2]: in experiment [1], the Ki is less than 1 nM. Moreover, the “functional antagonist of the human vasopressin V1b receptor” value at human V1b receptor is listed as “functional antagonist”.

In turn, `COc1ccc(CNC(C)C)cc1C1(N2CCC[C@H]2C(=O)N(C)C)C(=O)N(S(=O)(=O)c2ccc(C#N)cc2)c2ccc(Cl)cc21` (stereo partly drawn) [Example 101, (S)-1-[5-Chloro-1-(4-cyanobenzenesulfonyl)-3-(5-isopropylaminomethyl-2-methoxy-phenyl)-2-oxo-2,3-dihydro-1H-indol-3-yl]pyrrolidine-2-dimethylcarboxamide, trifluoroacetic acid salt] yielded a Ki in experiment [1] of less than 1 nM.

`CNCc1ccc(OC)c(C2(N3CCC[C@H]3C(=O)N(C)C)C(=O)N(S(=O)(=O)c3ccc(C#N)cc3)c3ccc(Cl)cc32)c1` (stereo partly drawn) [Example 102, (S)-1-[5-Chloro-1-(4-cyanobenzenesulfonyl)-3-(2-methoxy-5-methylaminomethyl-phenyl)-2-oxo-2,3-dihydro-1H-indol-3-yl]pyrrolidine-2-dimethylcarboxamide, trifluoroacetic acid salt] had a Ki in experiment [1] of 1 to 10 nM.

For the molecule “(S)-1-[3-(4-Aminomethyl-2-methoxyphenyl)-5-chloro-1-(4-cyanobenzenesulfonyl)-2-oxo-2,3-dihydro-1H-indol-3-yl]pyrrolidine-2-dimethylcarboxamide, trifluoroacetic acid salt [Example 76]”, the Ki in experiment [1] lay in the range of 1 to 10 nM.

“(S)-1-[3-(4-Aminomethyl-2-methoxyphenyl)-5-chloro-1-(4-fluorobenzenesulfonyl)-2-oxo-2,3-dihydro-1H-indol-3-yl]pyrrolidine-2-dimethylcarboxamide, trifluoroacetic acid salt [Example 75]”: the Ki in experiment [1] is 10 to 100 nM. The same measure, in the same setting: in the case of “(S)-2-({5-Chloro-1-(2,4-dimethoxybenzenesulfonyl)-3-[2-methoxy-4-(4-methyl-piperazin-1-ylmethyl)phenyl]-2-oxo-2,3-dihydro-1H-indol-3-yl}methylamino)-N,N-dimethyl-propionamide [Example 15]” it was less than 1 nM. The same measure, in the same setting: in the case of “(S)-2-{[5-Chloro-1-(2,4-dimethoxybenzenesulfonyl)-3-(4-dimethylaminomethyl-2-methoxyphenyl)-2-oxo-2,3-dihydro-1H-indol-3-yl]methylamino}-N,N-dimethyl-propionamide [Example 13]” it was 1 to 10 nM.

As usually defined, the Ki is a measure of affinity in units of concentration, obtained from inhibition or displacement. Read a high Ki as weaker binding.

These data come from patent US8691815B2, “Substituted oxindole derivatives, drugs containing said derivatives and the use thereof” (AbbVie Deutschland GmbH & Co. KG, priority 2005, dated 2014).
